Results published in patent US20260069584A1, “METHODS OF TREATING CHRONIC MYELOID LEUKEMIA USING THE TYROSINE KINASE INHIBITOR VODOBATINIB” (Sun Pharma Advanced Research Company Ltd., priority 2022, published 2026).

System: CP CML
Test: Part B: disease response in CP CML subjects
Assay type: in vivo, human
Settings: for Complete Molecular Response, Best Response / Complete cytogenetic response, Best Response / Cytogenetic response: Minimal response, Best Response / Cytogenetic response: Minor response, Best Response / Cytogenetic response: No response, Best Response / Hematological response: CHR, Best Response / Hematological response: No response, Best Response / Major cytogenetic response, Best Response / Major molecular response, Best Response / Molecular response: No response, Best Response / Partial cytogenetic response, Best Response: number of patients
Text: This was a Phase I/2, open-label, single-agent, multicenter, multi-dose, dose-escalation study in subjects with Philadelphia chromosome-positive Ph+ CML (CP CML, AP CML and BP CML) and Ph+ ALL. The primary objectives of this study were to determine the maximum tolerated dose (MTD; or recommended Phase 2 dose [RP2D]) of the compound of Formula I when administered orally and to evaluate its safety.
In this study, the dose-escalation cohort started with an accelerated titration study design (ATD) and shifted to a 3±3 design when subjects in the preceding ATD cohort experienced either grade 2 or higher adverse events (AEs) or dose-limiting toxicity (DLT) during Cycle 1 that was not clearly and incontrovertibly related to the underlying disease or concomitant medications. The DLT period consisted of 28 days (Cycle 1). Subjects experiencing DLTs were managed with dose delays and/or discontinuation and continued in the study until disease progression. Decisions to advance to a succeeding dose level occurred after the evaluation of safety and tolerability data for a given dose level.
Accordingly, the eligible subjects were treated in 4-week cycles of once daily self-administration of the compound of Formula I. The administration was after an overnight fast, or after maintaining approximately 2 hours of fasting before and after the dosing in all cycles.
For the cohorts, where the 3±3 design applies, 3 subjects were enrolled initially. If 2 of these subjects experienced a Grade 2 or more toxicity (that was not clearly and incontrovertibly related to the underlying disease or concomitant medications), subsequent cohorts were escalated according to smaller increments. Further, if there were no DLTs in the first 3 subjects, dose escalation to the next higher dose level was allowed to proceed. If 1 of the 3 subjects experienced a DLT, that dose level was expanded to 6 subjects (3 additional subjects were enrolled). If 2 subjects at a given dose level experienced a DLT, the MTD was considered to have been exceeded. The next lower dose level was expanded to 6 subjects, or if 6 subjects had already been enrolled and no more than 1 of the 6 subjects experienced a DLT, then this lower dose level was considered the MTD. Additional subjects were enrolled in dose escalation cohorts for further assessment of safety and efficacy of the compound of Formula 1 at doses that were tolerated (i.e., doses that have <2 DLTs in 6 enrolled subjects or <1 DLT in 3 enrolled subjects). Thus 204 mg was arrived at as MTD. A subject experiencing a DLT was allowed to continue therapy with a reduced dose. Subjects who experienced a DLT and recovered were treated at the next lower dose level until disease progression or other events requiring further dose reduction existed. For cohorts at Dose Level 2 or higher, a further dose reduction (i.e., up to 2 levels lower than their originally assigned dose) was implemented in the case of a further DLT or other non-DLT events requiring a dose reduction, if and when the event leading to dose reduction returned to Grade 1 or lower in severity. The reduced dose was re-escalated to the original or higher dose (i.e., the dose for which safety had been established in the dose escalation cohort) considering subject safety and response to the compound of Formula I. The subject was discontinued from treatment using the compound of Formula I, if dose reduction below 48 mg was required.
The study was conducted over a period of 60 months (5 years) which was divided in 28-days cycle. In the first two cycles, the dose administration was started on day 1 and the subject's assessments were performed on day 1, day 2, day 3, day 8, day 15 and day 22. From Cycle 3 onwards, the assessments were performed every 3 months (i.e., on day 28 of Cycle 3, followed by day 28 of Cycle 6 which was further followed by day 28 of Cycle 9). […]

[1] = 16 CP CML patients with prior ponatinib
[2] = prior ponatinib, 48 mg (N = 1) ESC
[3] = prior ponatinib, 66 mg (N = 2) ESC
[4] = prior ponatinib, 90 mg (N = 2) ESC
[5] = prior ponatinib, 126 mg (N = 1) ESC
[6] = prior ponatinib, 174 mg (N = 5) ESC
[7] = prior ponatinib, 204 mg (N = 3) ESC
[8] = prior ponatinib, 240 mg (N = 2) ESC

Cc1ccc(C(=O)NNC(=O)c2c(C)cccc2Cl)cc1C#Cc1cnc2ccccc2c1 [compound of Formula I, N′-(2-chloro-6-methylbenzoyl)-4-methyl-3-[2-(3-quinolyl)ethynyl]-benzohydrazide]
Best Hematologic Response: No Response (204 mg (N = 6) ESC): 0 | Best Molecular Response: Complete Response (204 mg (N = 6) ESC): 1(16.7) | Best Molecular Response: Major Response (204 mg (N = 6) ESC): 3(50.0) | Best Molecular Response: No Response (204 mg (N = 6) ESC): 3(50.0) | Best Cytogenetic Response: Complete Response (240 mg (N = 3) ESC): 3(100) | Best Cytogenetic Response: Major Cytogenetic Response (240 mg (N = 3) ESC): 3(100) | Best Cytogenetic Response: Minimal Response (240 mg (N = 3) ESC): 0 | Best Cytogenetic Response: Minor Response (240 mg (N = 3) ESC): 0 | Best Cytogenetic Response: No Response (240 mg (N = 3) ESC): 0 | Best Cytogenetic Response: Partial Response (240 mg (N = 3) ESC): 0 | Best Hematologic Response: Complete Response (240 mg (N = 3) ESC): 2(66.7) | Best Hematologic Response: Major Hematologic Response (240 mg (N = 3) ESC): 2(66.7) | Best Hematologic Response: No Evidence of Leukemia (240 mg (N = 3) ESC): 0 | Best Hematologic Response: No Response (240 mg (N = 3) ESC): 0 | Best Molecular Response: Complete Response (240 mg (N = 3) ESC): 1(33.3) | Best Molecular Response: Major Response (240 mg (N = 3) ESC): 3(100) | Best Molecular Response: No Response (240 mg (N = 3) ESC): 0 | MMR achieved (8 patients out of 17, prior ponatinib): 47% | Major Cytogenetic Response (MCyR, both PCyR+ CCyR) (11 of 16 CP CML patients with prior ponatinib): 68.8% | Achieved MCyR [1]: 6 patients | Maintained MCyR [1]: 5 patients | Complete Molecular Response, Best Response (ASC (N = 3)): 0 | Complete cytogenetic response, Best Response (ASC (N = 3)): 1 | Cytogenetic response: Minimal response, Best Response (ASC (N = 3)): 0 | Cytogenetic response: Minor response, Best Response (ASC (N = 3)): 1 | Cytogenetic response: No response, Best Response (ASC (N = 3)): 1 | Hematological response: CHR, Best Response (ASC (N = 3)): 3 | Hematological response: No response, Best Response (ASC (N = 3)): 0 | Major cytogenetic response, Best Response (ASC (N = 3)): 1 | Major molecular response, Best Response (ASC (N = 3)): 0 | Molecular response: No response, Best Response (ASC (N = 3)): 3 | Partial cytogenetic response, Best Response (ASC (N = 3)): 0 | Complete Molecular Response, Best Response (PON (N = 15)): 4 | Complete cytogenetic response, Best Response (PON (N = 15)): 7 | Cytogenetic response: Minimal response, Best Response (PON (N = 15)): 1 | Cytogenetic response: Minor response, Best Response (PON (N = 15)): 1 | Cytogenetic response: No response, Best Response (PON (N = 15)): 2 | Hematological response: CHR, Best Response (PON (N = 15)): 12 | Hematological response: No response, Best Response (PON (N = 15)): 3 | Major cytogenetic response, Best Response (PON (N = 15)): 10 | Major molecular response, Best Response (PON (N = 15)): 8 | Molecular response: No response, Best Response (PON (N = 15)): 7 | Partial cytogenetic response, Best Response (PON (N = 15)): 3 | Best Cytogenetic Response: Complete Response (Total (N = 30) ESC): 17(56.7) | Best Cytogenetic Response: Major Cytogenetic Response (Total (N = 30) ESC): 20(66.7) | Best Cytogenetic Response: Minimal Response (Total (N = 30) ESC): 4(13.3) | Best Cytogenetic Response: Minor Response (Total (N = 30) ESC): 1(3.3) | Best Cytogenetic Response: No Response (Total (N = 30) ESC): 3(10.0) | Best Cytogenetic Response: Partial Response (Total (N = 30) ESC): 3(10.0) | Best Hematologic Response: Complete Response (Total (N = 30) ESC): 24(80.0) | Best Hematologic Response: Major Hematologic Response (Total (N = 30) ESC): 24(80.0) | Best Hematologic Response: No Evidence of Leukemia (Total (N = 30) ESC): 0 | Best Hematologic Response: No Response (Total (N = 30) ESC): 4(13.3) | Best Molecular Response: Complete Response (Total (N = 30) ESC): 7(23.3) | Best Molecular Response: Major Response (Total (N = 30) ESC): 14(46.7) | Best Molecular Response: No Response (Total (N = 30) ESC): 14(46.7) | CCyR as best response (more than 3 prior TKIs including ponatinib): 46.7% | CCyR as best response (more than 3 prior TKIs including ponatinib and asciminib): 33.3% | Major cytogenetic response as best response (ponatinib group): 66.7% | Major cytogenetic response as best response (ponatinib plus asciminib group): 33.3% | Achieved MCyR [2]: 0 | Achieved MMR [2]: 1(100) | MCyR [2]: 1(100) | Maintained MCyR [2]: 1(100) | Maintained MMR [2]: 0 | Achieved MCyR [3]: 1(50.0) | Achieved MMR [3]: 0 | MCyR [3]: 1(50.0) | Maintained MCyR [3]: 0 | Maintained MMR [3]: 0 | Achieved MCyR [4]: 1(50.0) | Achieved MMR [4]: 1(50.0) | MCyR [4]: 1(50.0) | Maintained MCyR [4]: 0 | Maintained MMR [4]: 0 | Achieved MCyR [5]: 0 | Achieved MMR [5]: 0 | MCyR [5]: 0 | Maintained MCyR [5]: 0 | Maintained MMR [5]: 0 | Achieved MCyR [6]: 1(20.0) | Achieved MMR [6]: 3(60.0) | MCyR [6]: 3(60.0) | Maintained MCyR [6]: 2(40.0) | Maintained MMR [6]: 0 | Achieved MCyR [7]: 2(66.7) | Achieved MMR [7]: 1(33.3) | MCyR [7]: 3(100) | Maintained MCyR [7]: 1(33.3) | Maintained MMR [7]: 0 | Achieved MCyR [8]: 1(50.0) | Achieved MMR [8]: 2(100) | MCyR [8]: 2(100) | Maintained MCyR [8]: 1(50.0) | Maintained MMR [8]: 0 | Achieved MCyR (prior ponatinib, Total ESC): 6(37.5) | Achieved MMR (prior ponatinib, Total ESC): 8(50.0) | MCyR (prior ponatinib, Total ESC): 11(68.8) | Maintained MCyR (prior ponatinib, Total ESC): 5(31.3) | Maintained MMR (prior ponatinib, Total ESC): 0
